The values that follow come from patent US20050026911A1, “Benzotriazapinone salts and methods for using same” (priority 2003, published 2005).

SMILES strings stand for the structures.

This assay addresses T1, gastrin (CCK2) receptors (Rattus norvegicus, UniProt P30553).
T1 construct: The stomach was excised and flushed with ca. 1 ml of unbuffered physiological saline solution; from tissue; host or cells: isolated whole stomach of immature rats (ca. 21 days old)
T1 sequence (P30553 1-452): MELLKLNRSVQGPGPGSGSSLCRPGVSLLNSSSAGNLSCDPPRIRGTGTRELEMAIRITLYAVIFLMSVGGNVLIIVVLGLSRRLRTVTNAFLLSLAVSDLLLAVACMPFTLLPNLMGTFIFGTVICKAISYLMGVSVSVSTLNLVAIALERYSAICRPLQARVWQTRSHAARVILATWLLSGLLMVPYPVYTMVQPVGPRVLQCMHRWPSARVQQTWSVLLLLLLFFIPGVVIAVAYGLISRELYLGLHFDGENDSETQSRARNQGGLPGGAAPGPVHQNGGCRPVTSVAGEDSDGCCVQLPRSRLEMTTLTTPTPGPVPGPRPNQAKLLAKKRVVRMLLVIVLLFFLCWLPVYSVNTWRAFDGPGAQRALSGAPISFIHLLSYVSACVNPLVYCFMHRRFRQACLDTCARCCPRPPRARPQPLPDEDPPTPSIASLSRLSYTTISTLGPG
As to the kind of experiment: gastrin (CCK2) antagonist activity in an immature rat stomach assay. To be noted: pentagastrin dose-response curves, acid secretion, read-out: pKB rat stomach (converted). In outline:
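Stomachs excised from immature rats (33-50 g, ca. 21 days old) were perfused at 1 ml min^−1 with unbuffered O2-gassed saline, with acid output tracked by a pH electrode. After 120 min stabilisation, drug was added to the serosal bath, followed 60 min later by cumulative pentagastrin dose-response curves.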
Turning to `Cc1cccc2c1C(C1CCCCC1)=NN(CC(=O)Nc1cccc(C(=O)O)c1)C(=O)N2CC(=O)C(C)(C)C` [Example 114, 3-{2-[5-Cyclohexyl-1-(3,3-dimethyl-2-oxo-butyl)-6-methyl-2-oxo-1,2-dihydro-3H-1,3,4-benzotriazepin-3-yl]-acetylamino}-benzoic acid], the Kb was 35.5 nM.

As to `CC(C)(C)C(=O)CN1C(=O)N(CC(=O)Nc2ccc3c(ccn3CC(=O)O)c2)N=C(C2CCCCC2)c2ccccc21` [Example 117, (5-{2-[5-Cyclohexyl-1-(3,3-dimethyl-2-oxo-butyl)-2-oxo-1,2-dihydro-3H-1,3,4-benzotriazepin-3-yl]-acetylamino}-indol-1-yl)-acetic acid], the Kb is 27.5 nM.

In the case of `O=C(O)Cc1cccc(NC(=O)CN2N=C(C3CCCCC3)c3ccccc3N(CC(=O)C3CC3)C2=O)c1` [Example 119], the Kb was 24.5 nM.

With `O=C(O)CSc1cccc(NC(=O)CN2N=C(C3CCCCC3)c3ccccc3N(CC(=O)C3CC3)C2=O)c1` [Example 120, [3-(2-{5-Cyclohexyl-1-(2-cyclopropyl-2-oxo-ethyl)-2-oxo-1,2-dihydro-3H-1,3,4-benzotriazepin-3-yl]-acetylamino}-phenylsulfanyl)-acetic acid], the Kb was 37.2 nM.

With `CC(C)(C)C(=O)CN1C(=O)N(CC(=O)Nc2cccc(N3CCOCC3)c2)N=C(C2CCCCC2)c2ccccc21` [Example 123, 2-[5-Cyclohexyl-1-(3,3-dimethyl-2-oxo-butyl)-2-oxo-1,2-dihydro-3H-1,3,4-benzotriazepin-3-yl]-N-(3-morpholin-4-yl-phenyl)-acetamide], the Kb is 18.2 nM.

As for `CN(c1cccc(NC(=O)CN2N=C(C3CCCCC3)c3ccccc3N(CC(=O)C3CCCC3)C2=O)c1)c1nnn[nH]1` [Example 124, 2-[5-Cyclohexyl-1-(2-cyclopentyl-2-oxo-ethyl)-2-oxo-1,2-dihydro-3H-1,3,4-benzotriazepin-3-yl]-N-(3-[methyl-(2H-tetrazol-5-yl)-amino]-phenyl)-acetamide], the Kb was 2.14 nM.

Consider `O=C(CN1N=C(C2CCCCC2)c2ccccc2N(CC(=O)C2CCCC2)C1=O)Nc1cccc(-c2nnn[nH]2)c1` [Example 125, 2-[5-Cyclohexyl-1-(2-cyclopentyl-2-oxo-ethyl)-2-oxo-1,2-dihydro-3H-1,3,4-benzotriazepin-3-yl]-N-[3-(2H-tetrazol-5-yl)-phenyl]-acetamide], for which the Kb was 4.37 nM.

As to `O=C(O)Cn1ccc2ccc(NC(=O)CN3N=C(C4CCCCC4)c4ccccc4N(CC(=O)C4CCCC4)C3=O)cc21` [Example 126, (6-{2-[5-Cyclohexyl-1-(2-cyclopentyl-2-oxo-ethyl)-2-oxo-1,2-dihydro-3H-1,3,4-benzotriazepin-3-yl]-acetylamino}-indol-1-yl)-acetic acid], the Kb is 0.0575 nM.

As to `CC(C)(C)C(=O)CN1C(=O)N(CC(=O)Nc2cccc3c2ccn3CC(=O)O)N=C(C2CCCCC2)c2ccccc21` [Example 127, (4-{2-[5-Cyclohexyl-1-(3,3-dimethyl-2-oxo-butyl)-2-oxo-1,2-dihydro-3H-1,3,4-benzotriazepin-3-yl]-acetylamino}-indol-1-yl)-acetic acid], the Kb was 2.09 nM.

Turning to `CC(C)(C)C(=O)CN1C(=O)N(CC(=O)Nc2cccc3c2cnn3CC(=O)O)N=C(C2CCCCC2)c2ccccc21` [Example 130, (4-{2-[5-Cyclohexyl-1-(3,3-dimethyl-2-oxo-butyl)-2-oxo-1,2-dihydro-3H-1,3,4-benzotriazepin-3-yl]-acetylamino}-indazol-1-yl)-acetic acid], the Kb is 44.7 nM.

Turning to `CC(C)(C)C(=O)CN1C(=O)N(CC(=O)Nc2ccc3ccn(Cc4nnn[nH]4)c3c2)N=C(C2CCCCC2)c2ccccc21` [Example 131, 2-[5-Cyclohexyl-1-(3,3-dimethyl-2-oxo-butyl)-2-oxo-1,2-dihydro-3H-1,3,4-benzotriazepin-3-yl]-N-[1-(1H-tetrazol-5-ylmethyl)-1H-indol-6-yl]-acetamide], the Kb is 1.62 nM.

In the case of `Cc1cccc2c1C(C1CCCCC1)=NN(CC(=O)Nc1cccc(CC(=O)O)c1)C(=O)N2CC(=O)C(C)(C)C` [Example 132, (3-{2-[5-Cyclohexyl-1-(3,3-dimethyl-2-oxo-butyl)-6-methyl-2-oxo-1,2-dihydro-3H-1,3,4-benzotriazepin-3-yl]-acetylamino}-phenyl)-acetic acid], the Kb is 66.1 nM.

As for `CC1(C(=O)CN2C(=O)N(CC(=O)Nc3cccc(CC(=O)O)c3)N=C(C3CCCCC3)c3ccccc32)CCCCC1` [Example 133, [3-(2-{5-Cyclohexyl-1-[2-(1-methyl-cyclohexyl)-2-oxo-ethyl]-2-oxo-1,2-dihydro-3H-1,3,4-benzotriazepin-3-yl}-acetylamino)-phenyl]-acetic acid], the Kb is 14.1 nM.

Consider `CC1(C(=O)CN2C(=O)N(CC(=O)Nc3cccc(SCC(=O)O)c3)N=C(C3CCCCC3)c3ccccc32)CCCCC1` [Example 134, [3-(2-{5-Cyclohexyl-1-[2-(1-methyl-cyclohexyl)-2-oxo-ethyl]-2-oxo-1,2-dihydro-3H-1,3,4-benzotriazepin-3-yl}-acetylamino)-phenylsulfanyl]-acetic acid], for which the Kb was 17.4 nM.

For `Cc1nc(-c2cccc(NC(=O)CN3N=C(C4CCCCC4)c4ccccc4N(CC(=O)C4CCCC4)C3=O)c2)cs1` [Example 136, 2-[5-Cyclohexyl-1-(2-cyclopentyl-2-oxo-ethyl)-2-oxo-1,2-dihydro-3H-1,3,4-benzotriazepin-3-yl]-N-[3-(2-methyl-thiazol-4-yl)-phenyl]-acetamide], the Kb is 6.03 nM.

On to `O=C(CN1N=C(C2CCCCC2)c2ccccc2N(CC(=O)C2CCCC2)C1=O)Nc1cccc(-c2csc(C(=O)O)n2)c1` [Example 137, 4-(3-{2-[5-Cyclohexyl-1-(2-cyclopentyl-2-oxo-ethyl)-2-oxo-1,2-dihydro-3H-1,3,4-benzotriazepin-3-yl]-acetylamino}-phenyl)-thiazole-2-carboxylic acid], for which the Kb was 2.88 nM.

On to `COC(=O)c1coc(-c2cccc(NC(=O)CN3N=C(C4CCCCC4)c4ccccc4N(CC(=O)C(C)(C)C)C3=O)c2)n1` [Example 140, 2-(3-{2-[5-Cyclohexyl-1-(3,3-dimethyl-2-oxo-butyl)-2-oxo-1,2-dihydro-3H-1,3,4-benzotriazepin-3-yl]-acetylamino}-phenyl)-oxazole-4-carboxylic acid methyl ester], for which the Kb is 1.12 nM.

As to `CC(C)(C)C(=O)CN1C(=O)N(CC(=O)Nc2cccc3nn(CC(=O)O)cc23)N=C(C2CCCCC2)c2ccccc21` [Example 142, (4-{2-[5-Cyclohexyl-1-(3,3-dimethyl-2-oxo-butyl)-2-oxo-1,2-dihydro-3H-1,3,4-benzotriazepin-3-yl]-acetylamino}-indazol-2-yl)-acetic acid], the Kb is 15.5 nM.

Take `CNCCN(C)c1cccc(NC(=O)CN2N=C(C3CCCCC3)c3ccccc3N(CC(=O)C(C)(C)C)C2=O)c1` [Example 143, 2-[5-Cyclohexyl-1-(3,3-dimethyl-2-oxo-butyl)-2-oxo-1,2-dihydro-3H-1,3,4-benzotriazepin-3-yl]-N-{3-[methyl-(2-methylamino-ethyl)-amino]-phenyl}-acetamide]: the Kb is 117 nM.

For `CC(C)(C)C(=O)CN1C(=O)N(CC(=O)Nc2cccc(-c3nc(C(=O)O)co3)c2)N=C(C2CCCCC2)c2ccccc21` [Example 144, 2-(3-{2-[5-Cyclohexyl-1-(3,3-dimethyl-2-oxo-butyl)-2-oxo-1,2-dihydro-3H-1,3,4-benzotriazepin-3-yl]-acetylamino}-phenyl)-oxazole-4-carboxylic acid], the Kb was 4.17 nM.

Take `CC(C)(C)C(=O)CN1C(=O)N(CC(=O)Nc2cccc(-c3ccc(C(=O)O)o3)c2)N=C(C2CCCCC2)c2ccccc21` [Example 145, 5-(3-{2-[5-Cyclohexyl-1-(3,3-dimethyl-2-oxo-butyl)-2-oxo-1,2-dihydro-3H-1,3,4-benzotriazepin-3-yl]-acetylamino}-phenyl)-furan-2-carboxylic acid]: the Kb is 3.39 nM.

Turning to `CC(C)(C)C(=O)CN1C(=O)N(CC(=O)Nc2cccc(-c3ccc(C(=O)O)cc3)c2)N=C(C2CCCCC2)c2ccccc21` [Example 146, 3′-{2-[5-Cyclohexyl-1-(3,3-dimethyl-2-oxo-butyl)-2-oxo-1,2-dihydro-3H-1,3,4-benzotriazepin-3-yl]-acetylamino}-biphenyl-4-carboxylic acid], the Kb is 7.08 nM.

As to `CC(C)(C)C(=O)CN1C(=O)N(CC(=O)Nc2cccc(/C=C3\SC(=O)NC3=O)c2)N=C(C2CCCCC2)c2ccccc21` [Example 147, 2-[5-Cyclohexyl-1-(3,3-dimethyl-2-oxo-butyl)-2-oxo-1,2-dihydro-3H-1,3,4-benzotriazepin-3-yl]-N-[3-(2,4-dioxo-thiazolidin-5-ylidenemethyl)-phenyl]-acetamide], the Kb was 8.32 nM.

In the case of `O=C(CN1N=C(C2CCCCC2)c2ccccc2N(CC(=O)C2CCCC2)C1=O)Nc1cccc(-c2nc(C(=O)O)co2)c1` [Example 148, 2-(3-{2-[5-Cyclohexyl-1-(2-cyclopentyl-2-oxo-ethyl)-2-oxo-1,2-dihydro-3H-1,3,4-benzotriazepin-3-yl]-acetylamino}-phenyl)-oxazole-4-carboxylic acid], the Kb was 3.89 nM.

As for `O=C(CN1N=C(C2CCCCC2)c2ccccc2N(CC(=O)C2CCCC2)C1=O)Nc1cccc(-c2ccc(C(=O)O)o2)c1` [Example 149], the Kb was 1.1 nM.
